Results published in patent US10765114B2, “4-amino-6-(pyridyl and 2-substitutedphenyl)-picolinates and 6-amino-2-(pyridyl and 2-substitutedphenyl)-pyrimidine-4-carboxylates and their use as herbicides” (Dow AgroSciences LLC, priority 2013, dated 2020).

Legend:
Assay in all cases: Post-Emergent Test III (Wheat and Barley)
APESV (windgrass) = type: in vivo, Apera spica-venti
Outline: (§1)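 GR10-GR90 values were derived by probit analysis of visual injury (0 = no injury, 100 = complete kill versus untreated), rated 21 days after spraying. Two- to three-true-leaf plants were sprayed at 187 L/ha with serial rates (1× to 1/16×) in aqueous acetone/isopropanol/DMSO with crop oil and X-77. Greenhouse conditions were 18 °C day/17 °C night.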

KCHSC (kochia) = type: in vivo, Kochia scoparia
Outline: as §1

HORSS = type: in vivo
Outline: as §1

TRZSS = type: in vivo
Outline: as §1

PAPRH (common poppy) = type: in vivo, Papaver rhoeas; settings: for Visual Growth Reduction (%) 21 Days After Application, PAPRH: postemergence
Protocol: (§2) Seeds of the desired test plant species were planted in Sun Gro MetroMix® 306 planting mixture, which typically has a pH of 6.0 to 6.8 and an organic matter content of about 30 percent, in plastic pots with a surface area of 103.2 square centimeters (cm^2). When required to ensure good germination and healthy plants, a fungicide treatment and/or other chemical or physical treatment was applied. The plants were grown for 7-36 days in a greenhouse with an approximate 14 h photoperiod which was maintained at about 18° C. during the day and 17° C. during the night. Nutrients and water were added on a regular basis and supplemental lighting was provided with overhead metal halide 1000-Watt lamps as necessary. The plants were employed for testing when they reached the second or third true leaf stage.
(§3) A weighed amount, determined by the highest rate to be tested, of each test compound was placed in a 25 mL glass vial and was dissolved in 4 mL of a 97:3 v/v mixture of acetone and DMSO to obtain concentrated stock solutions. […] The concentrated stock solutions obtained were diluted with 20 mL of an aqueous mixture containing acetone, water, isopropyl alcohol, DMSO, Agri-Dex crop oil concentrate, and X-77 surfactant in a 48:39:10:1.5:1.5:0.02 v/v ratio to obtain spray solutions containing the highest application rates. Additional application rates were obtained by serial dilution of 12 mL of the high rate solution into a solution containing 2 mL of 97:3 v/v mixture of acetone and DMSO and 10 mL of an aqueous mixture containing acetone, water, isopropyl alcohol, DMSO, Agri-Dex crop oil concentrate, and X-77 surfactant in a 48:39:10:1.5:1.5:0.02 v/v ratio to obtain ½×, ¼×, ⅛× and 1/16× rates of the high rate. Compound requirements are based upon a 12 mL application volume at a rate of 187 liters per hectare (L/ha). Formulated compounds were applied to the plant material with an overhead Mandel track sprayer equipped with 8002E nozzles calibrated to deliver 187 L/ha over an application area of 0.503 square meters at a spray height of 18 inches (43 cm) above the average plant canopy height. Control plants were sprayed in the same manner with the solvent blank.
(§4) The treated plants and control plants were placed in a greenhouse as described above and watered by subirrigation to prevent wash-off of the test compounds. After 21 dAYS, the condition of the test plants as compared with that of the untreated plants was determined visually and scored on a scale of 0 to 100 percent where 0 corresponds to no injury and 100 corresponds to complete kill and presented as indicated in Table A.
(§5) By applying the well-accepted probit analysis as described by J. Berkson in Journal of the American Statistical Society, 48, 565 (1953) and by D. Finney in “Probit Analysis” Cambridge University Press (1952), herbicidal injury of a specific compound at various rates can be used to calculate GR10, GR20, GR50, GR80 and GR90 values, which are defined as growth reduction factors that correspond to the effective dose of herbicide required to provide plant growth reduction (GR) of 10 percent, 20 percent, 50 percent, 80 percent and 90 percent, respectively. Probit analysis was applied to data collected from multiple dose rates of individual compounds utilizing the procedures explained in the following examples. The analysis of those dose rates is captured in the following tables.

POLCO (wild buckwheat) = type: in vivo, Polygonum convolvulus; settings: for Visual Growth Reduction (%) 21 Days After Application, POLCO: postemergence
Protocol: as §2, §3, §4, §5

SASKR (Russian thistle) = type: in vivo, Salsola tragus; settings: for Visual Growth Reduction (%) 21 Days After Application, SASKR: postemergence
Protocol: as §2, §3, §4, §5

[1] = test system: VERPE (Persian speedwell); type: in vivo, Veronica persica; settings: for Visual Growth Reduction (%) 21 Days After Application, VERPE: postemergence
Protocol: as §2, §3, §4, §5

[2] = effective dose for growth reduction of 50 percent, probit analysis
[3] = effective dose for growth reduction of 80 percent, probit analysis
[4] = effective dose for growth reduction of 90 percent, probit analysis
[5] = effective dose for growth reduction of 10 percent, probit analysis
[6] = effective dose for growth reduction of 20 percent, probit analysis

Work on `Nc1c(F)c(-c2ccc(C(F)(F)F)nc2)nc(C(=O)O)c1Cl` [Compound 46, 4-amino-5-chloro-3-fluoro-6′-(trifluoromethyl)-[2,3′-bipyridine]-6-carboxylic acid] yielded a pest or weed control at 35 g/ha (APESV (windgrass); Apera spica-venti, post-emergence, 504 h, 35 g ai/ha, postemergence, read-out: Visual Growth Reduction (%) 21 Days After Application, APESV) of 60 to 74%, a pest or weed control at 70 g/ha (APESV (windgrass); Apera spica-venti, post-emergence, 504 h, 70 g ai/ha, postemergence, read-out: Visual Growth Reduction (%) 21 Days After Application, APESV) of 75 to 84% and a pest or weed control at 140 g/ha (APESV (windgrass); Apera spica-venti, post-emergence, 504 h, 140 g ai/ha, postemergence, read-out: Visual Growth Reduction (%) 21 Days After Application, APESV) of 85 to 94%. For the same compound, the “GR50, APESV” value (APESV (windgrass); [2]) was 37 g ai/ha, the “GR80, APESV” value (APESV (windgrass); [3]) was 78 g ai/ha and the “GR90, APESV” value (APESV (windgrass); [4]) was 115 g ai/ha. The pest or weed control at 35 g/ha (KCHSC (kochia); Bassia scoparia, post-emergence, 504 h, 35 g ai/ha, postemergence, read-out: Visual Growth Reduction (%) 21 Days After Application, KCHSC) was 60 to 74%, the pest or weed control at 70 g/ha (KCHSC (kochia); Bassia scoparia, post-emergence, 504 h, 70 g ai/ha, postemergence, read-out: Visual Growth Reduction (%) 21 Days After Application, KCHSC) was 60 to 74% and the pest or weed control at 140 g/ha (KCHSC (kochia); Bassia scoparia, post-emergence, 504 h, 140 g ai/ha, postemergence, read-out: Visual Growth Reduction (%) 21 Days After Application, KCHSC) was 85 to 94%. The “GR50, KCHSC” value (KCHSC (kochia); [2]) was 29 g ai/ha, the “GR80, KCHSC” value (KCHSC (kochia); [3]) was 104 g ai/ha and the “GR90, KCHSC” value (KCHSC (kochia); [4]) was over 140 g ai/ha. It also gave a pest or weed control at 35 g/ha (HORSS; Hordeum vulgare, post-emergence, 504 h, 35 g ai/ha, postemergence, read-out: Visual Growth Reduction (%) 21 Days After Application, HORSS) of 60 to 74%, a pest or weed control at 70 g/ha (HORSS; Hordeum vulgare, post-emergence, 504 h, 70 g ai/ha, postemergence, read-out: Visual Growth Reduction (%) 21 Days After Application, HORSS) of 75 to 84% and a pest or weed control at 140 g/ha (HORSS; Hordeum vulgare, post-emergence, 504 h, 140 g ai/ha, postemergence, read-out: Visual Growth Reduction (%) 21 Days After Application, HORSS) of 85 to 94%. The “GR10, HORSS” value (HORSS; [5]) was 1 g ai/ha, the “GR20, HORSS” value (HORSS; [6]) was 3 g ai/ha and the pest or weed control at 35 g/ha (TRZSS; Triticum aestivum, post-emergence, 504 h, 35 g ai/ha, postemergence, read-out: Visual Growth Reduction (%) 21 Days After Application, TRZSS) was 75 to 84%. For the same compound, the pest or weed control at 70 g/ha (TRZSS; Triticum aestivum, post-emergence, 504 h, 70 g ai/ha, postemergence, read-out: Visual Growth Reduction (%) 21 Days After Application, TRZSS) was 75 to 84%, the pest or weed control at 140 g/ha (TRZSS; Triticum aestivum, post-emergence, 504 h, 140 g ai/ha, postemergence, read-out: Visual Growth Reduction (%) 21 Days After Application, TRZSS) was 85 to 94% and the “GR10, TRZSS” value (TRZSS; [5]) was 1 g ai/ha. The “GR20, TRZSS” value (TRZSS; [6]) was 1 g ai/ha, the “Visual Growth Reduction (%) 21 Days After Application, PAPRH” value (PAPRH (common poppy); 35 g ai/ha) was “A (95-100)” and the “Visual Growth Reduction (%) 21 Days After Application, PAPRH” value (PAPRH (common poppy); 70 g ai/ha) was “A (95-100)”. The “Visual Growth Reduction (%) 21 Days After Application, PAPRH” value (PAPRH (common poppy); 140 g ai/ha) was “A (95-100)”, the “GR50, PAPRH” value (PAPRH (common poppy); [2]) was 2 g ai/ha and the “GR80, PAPRH” value (PAPRH (common poppy); [3]) was 8 g ai/ha. The “GR90, PAPRH” value (PAPRH (common poppy); [4]) was 16 g ai/ha, the “Visual Growth Reduction (%) 21 Days After Application, POLCO” value (POLCO (wild buckwheat); 35 g ai/ha) was “E (45-59)” and the “Visual Growth Reduction (%) 21 Days After Application, POLCO” value (POLCO (wild buckwheat); 70 g ai/ha) was “D (60-74)”. For the same compound, the “Visual Growth Reduction (%) 21 Days After Application, POLCO” value (POLCO (wild buckwheat); 140 g ai/ha) was “D (60-74)”, the “GR50, POLCO” value (POLCO (wild buckwheat); [2]) was 27 g ai/ha and the “GR80, POLCO” value (POLCO (wild buckwheat); [3]) was over 140 g ai/ha. The “GR90, POLCO” value (POLCO (wild buckwheat); [4]) was over 140 g ai/ha, the “Visual Growth Reduction (%) 21 Days After Application, SASKR” value (SASKR (Russian thistle); 35 g ai/ha) was “E (45-59)” and the “Visual Growth Reduction (%) 21 Days After Application, SASKR” value (SASKR (Russian thistle); 70 g ai/ha) was “D (60-74)”. For the same compound, the “Visual Growth Reduction (%) 21 Days After Application, SASKR” value (SASKR (Russian thistle); 140 g ai/ha) was “D (60-74)”, the “GR50, SASKR” value (SASKR (Russian thistle); [2]) was 23 g ai/ha and the “GR80, SASKR” value (SASKR (Russian thistle); [3]) was over 140 g ai/ha. The “GR90, SASKR” value (SASKR (Russian thistle); [4]) was over 140 g ai/ha, the “Visual Growth Reduction (%) 21 Days After Application, VERPE” value ([1]; 35 g ai/ha) was “A (95-100)” and the “Visual Growth Reduction (%) 21 Days After Application, VERPE” value ([1]; 70 g ai/ha) was “A (95-100)”. The “Visual Growth Reduction (%) 21 Days After Application, VERPE” value ([1]; 140 g ai/ha) was “A (95-100)”, the “GR50, VERPE” value [1, 2] was 1 g ai/ha and the “GR80, VERPE” value [1, 3] was 2 g ai/ha. The “GR90, VERPE” value [1, 4] was 8 g ai/ha.
